Results on nine compounds are retold here after US20180243421A1, “IMMUNOSTIMULATING AGENT” (AJINOMOTO CO., INC., priority 2015, published 2018).

For data set [1], the system named is anti-OVA-specific IgE antibody. The following applies: mouse, in vivo. The procedure:
The serum sample obtained in Example 1 was measured for an anti-OVA-specific IgE antibody. The measurement method of the anti-OVA-specific IgE antibody in Example 3 and Examples 6, 9 is as follows.
Measurement Method of anti-OVA-specific IgE Antibody
DS mouse IgE ELISA (OVA) kit manufactured by DS Pharma Biomedical Co., Ltd. was used. The protocol is briefly shown below.
The serum sample and a standard reagent for drawing an analytical curve are diluted with a buffer and, after stirring, left standing at room temperature for 10 min. The sample and the standard solution are added to a plate bound with an IgE capture antibody in advance and, after stirring, the mixture is left standing at room temperature for 60 min. The mixture is washed three times with wash, HRP-labeled OVA is added, and the mixture is left standing at room temperature for 30 min. The mixture is washed three times with wash, a substrate solution is added, and the mixture is left standing in dark at room temperature for 30 min. A reaction quenching liquid is added, the mixture is stirred, and the absorbance (OD Value=450 nm) is immediately measured.
This test was performed in the same manner as in Example 3 except that N^2-hexadecanoyl-L-arginine (SZ61), N-hexadecanoylagmatine (SZ62), N^2-hexadecanoyl-L-arginine methyl ester hydrochloride (SZ63), N^2-octadecanoyl-L-glutamine tert-butyl ester (SZ64), and N^2-octadecanoyl-L-glutamine (SZ65) were used.
This test was performed in the same manner as in Example 6 except that N-hexadecanoylagmatine (SZ62), N^2-octadecanoyl-L-glutamine tert-butyl ester (SZ64), N-docosanoyl-L-leucine methyl ester (SZ70), and N-docosanoyl-L-phenylalanine methyl ester (SZ71) were used and a positive control adjuvant Addavax™ (InvivoGen) administration group was formed.
The allergy inducing activity test was performed in the same manner as in Example 3 except that Addavax™, N-(2-octadecyleicosanoyl)-L-leucine methyl ester (SZ86), N-hexadecanoyl-L-leucinamide (SZ90), N^2-hexadecanoyl-N^1,N^1-diethyl-L-leucinamide (SZ92), N^2-hexadecanoyl-L-arginine hexyl ester hydrochloride (SZ99) and N^2-docosanoyl-N^1,N^1-diethyl-L-glutamic acid 1-amide (SZ106) were used.
The allergy inducing activity test was performed in the same manner as in Example 3 except that Addavax™, N-(2-octadecyleicosanoyl)-L-leucine methyl ester (SZ86), N-hexadecanoyl-L-leucinamide (SZ90), N^2-hexadecanoyl-N^1,N^1-diethyl-L-leucinamide (SZ92), N-hexadecanoyl-L-leucine hexyl ester (SZ97), N^2-docosanoyl-N^1,N^1-diethyl-L-glutamic acid 1-amide (SZ106) and N-docosanoylagmatine hydrochloride (SZ108) were used.
8-Week-old female BALB/c mice were divided into groups (N=6), and each group was primarily immunized by dorsal-subcutaneous administration of (1) ovalbumin (OVA) (5 μg) dissolved in saline as an antigen (OVA single administration group), (2) OVA (10 μg) and aluminum hydroxide salt dissolved in saline (Alum administration group), (3) OVA 10 μg and Addavax™ (mixed with saline at 1:1) dissolved in saline (Addavax™ administration group), (4) OVA 10 μg and CpG 5 μg dissolved in saline (CpG administration group), (5) OVA 10 μg and MPL 5 μg dissolved in saline (MPL administration group), (6) OVA (5 μg) and SZ62 (0.256 μmol) dissolved or dispersed in 5% αCD-added saline (SZ62 administration group), (7) OVA (5 μg), SZ62 (0.256 μmol) and CpG 5 μg dissolved or dispersed in 5% αCD-added saline (SZ62+CpG administration group), (8) OVA 10 μg, Addavax™ (mixed with saline at 1:1) and CpG 5 μg dissolved in saline (Addavax™+CpG administration group), (9) OVA (5 μg), SZ62 (0.256 μmol) and MPL 5 μg dissolved or dispersed in 5% αCD-added saline (SZ62+MPL administration group), (10) OVA (10 μg), aluminum hydroxide salt (Alum) and MPL 5 μg dissolved in saline (Alum+MPL administration group), each per mouse. One week later, the secondary immunization was carried out by dorsal-subcutaneous administration of solutions or dispersions similar to those of the above-mentioned (1) to (10) again.

Data set [2] concerns anti-OVA-specific IgG1 subclass antibody. Briefly: Adjuvant activity: anti-OVA-specific IgG1 subclass antibody in serum after secondary immunization (Examples 1, 5, 7, 8; ELISA absorbance). The class given is in vivo, BALB/c mice. How it is done:
Two weeks from the secondary immunization, the whole blood was extracted under anesthesia, and the obtained serum sample was measured for anti-OVA-specific IgG1 subclass antibody.
A method for measurement of the anti-OVA-specific IgG1 subclass antibody in Example 1, and the following Examples 5, 7 and 8 is as follows.
Measurement Method of anti-OVA-specific IgG1 Subclass Antibody
To a 96 well plate was added 5 μg/ml OVA at 100 μl/well, and the mixture was incubated at 4° C. overnight. After incubation, the mixture was washed three times with 200 μl of PBS-T (PBS+0.05%(v/v) Tween 20) per well, and blocked with 100 μl of 5% FCS/PBS solution per well at room temperature for 1 to 2 hr. Thereafter, the mixture was washed three times with PBS-T (200 μl/well), a diluted serum sample (100 μl/well) or the same amount of 5% FCS/PBS solution as a control was added, and the mixture was incubated at 37° C. for 1 hr. Thereafter, the mixture was washed five times with PBS-T (200 μl/well), a diluted biotinylated anti-mouse IgG1 antibody (100 μl/well) was added, and the mixture was incubated at 37° C. for 45 min. Thereafter, the mixture was washed five times with PBS-T (200 μl/well), a diluted anti-biotin-HRP antibody was added (100 μl/well), and the mixture was incubated at 37° C. for another 30 min. Thereafter, the mixture was washed five times with PBS-T (200 μl/well), TMB substrate solution was added (100 μl/well), and the mixture was incubated at room temperature for 10 to 15 min. Thereafter, a reaction quenching liquid (2N sulfuric acid solution) was added (50 μl/well) to discontinue a color developing reaction, and the absorbance (OD Value=450 nm) was measured by a microplate reader.
A general note: An ELISA detects its analyte on a solid surface through an enzyme-linked reagent.

The test system is the same in data set [3]. Briefly: Adjuvant activity after primary immunization: anti-OVA-specific IgG1 subclass antibody in serum (Examples 13-18). The class given is in vivo, BALB/c mice. The conditions noted are these: OVA 5 μg + 0.256 μmol in 5% αCD saline s.c., serum after 12 days; for anti-OVA-specific IgG1 subclass antibody production after primary immunization: Example 13. How it is done:
8-Week-old female BALB/c mice were divided into groups (N=6), and each group was primarily immunized by dorsal-subcutaneous administration of (1) ovalbumin (OVA) (5 μg) dissolved in saline as an antigen (OVA single administration group), (2) OVA (5 μg) and SZ83 (0.256 μmol) dissolved or dispersed in 5% αCD-added saline (SZ83 administration group), (3) OVA (5 μg) and SZ84 (0.256 μmol) dissolved or dispersed in 5% αCD-added saline (SZ84 administration group), (4) OVA (5 μg) and SZ86 (0.256 μmol) dissolved or dispersed in 5% αCD-added saline (SZ86 administration group), (5) OVA (5 μg) and SZ89 (0.256 μmol) dissolved or dispersed in 5% αCD-added saline (SZ89 administration group), (6) OVA (5 μg) and SZ90 (0.256 μmol) dissolved or dispersed in 5% αCD-added saline (SZ90 administration group), each per mouse. After 12 days, blood samples were collected under anesthesia, and the obtained serum samples were subjected to the measurement of an anti-OVA-specific IgG1 subclass antibody.
Measurement Method of Concentration of anti-OVA-specific IgG1 Subclass Antibody and anti-OVA-specific IgG2a Subclass Antibody
To a 96 well plate was added 5 μg/ml OVA at 100 μl/well, and the mixture was incubated at 4° C. overnight. After incubation, the mixture was washed three times with 200 μl of PBS-T (PBS+0.05% (v/v) Tween 20) per well, and blocked with 100 μl of 5% FCS/PBS solution per well at room temperature for 1 to for 2 hr. Thereafter, the mixture was washed three times with PBS-T (200 μl/well), a diluted serum sample (100 μl/well) or the same amount of 5% FCS/PBS solution as a control was added, to and the mixture was incubated at 37° C. for 1 hr. To calculate concentration of the antibody, the standard of an anti-OVA-specific IgG1 subclass antibody diluted with 2% FCS/PBS solution was added at 100 ng/ml, 50 ng/ml, 25 ng/ml, 12.5 ng/ml, 6.25 ng/ml, 3.125 ng/ml, 1.56 ng/ml, 0.781 ng/ml, 0.391 ng/ml, 0.195 ng/ml, 0.098 ng/ml, 0 ng/ml, per 1 well. When an anti-OVA-specific IgG2a subclass antibody was measured, the standard of an anti-OVA-specific IgG2a subclass antibody was added at 50 ng/ml, 25 ng/ml, 12,5 ng/ml, 6.25 ng/ml, 3.125 ng/ml, 1.56 ng/ml, 0.781 ng/ml, 0.391 ng/ml, 0.195 ng/ml, 0.098 ng/ml, 0.049 ng/ml, 0 ng/ml, per 1 well. […] Thereafter, the mixture was washed five times with PBS-T (200 μl/well), a diluted anti-biotin-HRP antibody was added (100 μl/well), and the mixture was incubated at 37° C. for another 30 min. Thereafter, the mixture was washed five times with PBS-T (200 μl/well), TMB substrate solution was added (100 μl/well), and the mixture was incubated at room temperature for 10- for 15 min. Thereafter, a reaction quenching liquid (2N sulfuric acid solution) was added (50 μl/well) to discontinue a color developing reaction, and the absorbance (OD Value=450 nm) was measured by a microplate reader. A standard curve was drawn from the measured OD values, and the concentration was calculated.
8-Week-old female BALB/c mice were divided into groups (N=6), and each group was primarily immunized by dorsal-subcutaneous administration of (1) ovalbumin (OVA) (5 μg) dissolved in saline as an antigen (OVA single administration group), (2) OVA (5 μg) and SZ92 (0.256 μmol) dissolved or dispersed in 5% αCD-added saline (SZ92 administration group), (3) OVA (5 μg) and SZ94 (0.256 μmol) dissolved or dispersed in 5% αCD-added saline (SZ94 administration group), (4) OVA (5 μg) and SZ95 (0.256 μmol) dissolved or dispersed in 5% αCD-added saline (SZ95 administration group), (5) OVA (5 μg) and SZ96 (0.256 μmol) dissolved or dispersed in 5% αCD-added saline (SZ96 administration group), each per mouse. After 12 days, blood samples were collected under anesthesia, and the obtained serum samples were subjected to the measurement of anti-OVA-specific IgG1 subclass antibody.

Turning to `CCCCCCCCCCCCCCCCCC(=O)N[C@@H](CCC(N)=O)C(=O)O` [SZ65, N^2-octadecanoyl-L-glutamine], in data set [1], the “allergy inducing activity as compared to aluminum hydroxide gel adjuvant” value is “lower allergy inducing activity” and the “anti-OVA-specific IgE antibody production as compared to the OVA single administration group” value was “a significant increase in the anti-OVA-specific IgE antibody production was not observed”. Also, the “adjuvant activity (IgG1) compared with Alum” value in data set [2] (Example 5) is recorded as “equivalent to or not less than that of Alum”. Also, the “anti-OVA-specific IgG1 subclass antibody production as compared to the OVA single administration group” value in data set [2] (Example 5, same manner as Example 1) was “significantly increased”. For the compound `CCCCCCCCCCCCCCCCCCCCCC(=O)N[C@@H](Cc1ccccc1)C(=O)OC` [SZ71, N-docosanoyl-L-phenylalanine methyl ester], the “allergy inducing activity as compared to aluminum hydroxide gel adjuvant and Addavax” value in data set [1] is recorded as “lower allergy inducing activity”. In data set [2] (Example 7), the “adjuvant activity (IgG1) compared with Alum” value is reported as “equivalent to or not less than that of Alum” and the “anti-OVA-specific IgG1 subclass antibody production compared with Alum” value is reported as “equivalent to or not less than that of Alum”. For the same compound, the “anti-OVA-specific IgG1 subclass antibody production as compared to the OVA single administration group” value in data set [2] (Example 7, same manner as Example 1, plus Addavax group) is on record as “a significant difference was not found”. On to `COC(=O)[C@H](CC(C)C)NC(C)=O` [SZ83, N-acetyl-L-leucine methyl ester], for which the “anti-OVA-specific IgG1 subclass antibody production after primary immunization” value in data set [3] is on record as “show a tendency to increase”.

Consider `CCCCCC(=O)N[C@@H](CC(C)C)C(=O)OC` [SZ84, N-hexanoyl-L-leucine methyl ester], for which the “anti-OVA-specific IgG1 subclass antibody production after primary immunization” value in data set [3] is recorded as “show a tendency to increase”.

In the case of `CCCCCCCCCCCCCCCC(=O)N[C@@H](CC(C)C)C(=O)OC(C)(C)C` [SZ89, N-hexadecanoyl-L-leucine tert-butyl ester], the “anti-OVA-specific IgG1 subclass antibody production after primary immunization” value in data set [3] is “show a tendency to increase”. With `CCCCCCCCCCCCCCCC(=O)N[C@@H](Cc1c[nH]cn1)C(=O)OC` [SZ94, N-hexadecanoyl-L-histidine methyl ester], the “anti-OVA-specific IgG1 subclass antibody production after primary immunization as compared to the OVA single administration group” value in data set [3] (Example 14) is on record as “tended to increase”. The same measure, in the same setting: to `CCCCCCCCCCCCCCCC(=O)N1CCC[C@H]1C(=O)OC` [SZ95, N-hexadecanoyl-L-proline methyl ester] belongs “tended to increase”; to `CCCCCCCCCCCCCCCC(=O)N[C@@H](CO)C(=O)OC` [SZ96, N-hexadecanoyl-L-serine methyl ester], “tended to increase”. On to `CCCCCCCCCCCCCCCC(=O)N[C@@H](CCCNC(=N)N)C(=O)N(CC)CC.Cl` [SZ110, N^2-hexadecanoyl-N^1,N^1-diethyl-L-arginine amide hydrochloride salt], for which the “anti-OVA-specific IgG1 subclass antibody production after primary immunization as compared to the OVA single administration group” value in data set [3] (Example 16) was “tended to increase”.
